Columns and labels:
TT-CML affected mouse [1] = experiment: Peripheral blood leukocyte number, spleen and cell lineage in drug-administered TT-CML affected mouse; format: in vivo; conditions: TEW-7197 2.5 mg/kg/day every three days, oral
Text: The number of leukocyte in the peripheral blood of the drug-administered TT-CML affected mouse is shown in FIG. 3A (n=5, NS: not significant), a photograph of the spleen thereof is shown in FIG. 3B (bar: 10 mm), and the weight of the spleen thereof is shown in FIG. 3C (n=3). Further, percentages (%) of T cell (detected using anti-CD4 antibody and anti-CD8 antibody), B cell (detected using anti-B220 antibody), and bone marrow cell (detected using anti-Macl antibody and anti-Gr-1 antibody) among the total BCR-ABL1-GFP^+ cells in the peripheral blood of the TEW-7197-administered TT-CML affected mouse are shown in FIG. 3D (n=3, NS: not significant).

TT-CML affected mouse [2] = experiment: Flow cytometry of GFP/BCR-ABL+ KLS+ and KLS- cells in TT-CML affected mouse; format: in vivo; conditions: TEW-7197 2.5 mg/kg/day every three days, oral, 30 days, peripheral blood
Description: GFP/BCR-ABL^+c-Kit^+Lineage^−Sca-1^+(KLS^+) cells (bold box) and c-Kit^+Lineage^−Sca-1^− (KLS^−) cells (dotted box) in the peripheral blood were analyzed by flow cytometry, and the results are shown in FIG. 4A.

[3] = test system: TKI-resistant T315I TT-CML affected mouse; experiment: Flow cytometry of T315I BCR-ABL-GFP+ KLS+ and KLS- cells in TKI-resistant T315I TT-CML affected mouse; format: in vivo; conditions: ponatinib 15 mg/kg/day, TEW-7197 2.5 mg/kg/day every three days, oral, 30 days; peripheral blood; FIG. 5C
Description: T315I BCR-ABL-GFP^+KLS^+ cells (bold box) and KLS^− cells (dotted box) in the peripheral blood were analyzed by flow cytometry, and the results are shown in FIG. 5A.

[4] = test system: human CML-initiating cells; experiment: Colony formation of human CML-initiating cells (CD34+CD38-Lin-) co-cultured with OP-9 stromal cells; format: cell-based; conditions: cells of three CML patients, co-culture with OP-9, 3% oxygen; combination compared to single treatment of dasatinib; FIGS. 6A-6C
Description: Bone marrow mononuclear cells (Allcells, Cat. No. 06-255, 06-620, and 147742, CA) of three patients with chronic CML were prepared. Bone marrow mononuclear cells were stained with anti-CD34(8G12) antibody (BD Biosciences), anti-CD38(HIT2) antibody (BD Biosciences), anti-CD3(SK7) antibody (BD Biosciences), anti-CD16(3G8) antibody (BD Biosciences), anti-CD19(SJ25C1) antibody (BD Biosciences), anti-CD20([…]) antibody (BD Biosciences), anti-CD14(MfP9) antibody (BD Biosciences), and anti-CD56(NCAM16.2) antibody (BD Biosciences). A mouse antibody cocktail recognizing CD3, CD16, CD19, CD20, CD14 and CD56 was used to identify Lineage^- (Lin^-) cells, and CD34^+CD38^-Lin^- cells were separated. […] A control group was prepared in the same manner, except that DMSO was used. Cells were harvested and washed with PBS, and then cultured in methyl cellulose (Stem cell technologies, GFM3434) to measure colony formation of human CML-initiating cells.

`Cc1cccc(-c2[nH]c(CNc3ccccc3F)nc2-c2ccc3ncnn3c2)n1` [TEW-7197, N-((4-([1,2,4]triazolo[1,5-a]pyridin-6-yl)-5-(6-methylpyridin-2-yl)-1H-imidazol-2-yl)methyl)-2-fluoroaniline] was tested, and the “differentiation of bone marrow cells among the BCR-ABL1-GFP+ cells in peripheral blood” value (TT-CML affected mouse [1]; FIG. 3D) was “did not affect differentiation of bone marrow cells”, the “number of leukocyte in the peripheral blood” value (TT-CML affected mouse [1]; dasatinib 5 mg/kg/day, about 30 days, compared to vehicle, FIG. 3A) was “increased” and the “splenomegaly (spleen weight)” value (TT-CML affected mouse [1]; dasatinib 5 mg/kg/day, about 30 days, compared to vehicle, FIGS. 3B, 3C) was “promoted”. The “percentage of KLS+ cells among BCR-ABL1-GFP+ CML cells” value (TT-CML affected mouse [2]; FIG. 4C) was “remarkably decreased”, the “percentage of KLS- cells among BCR-ABL1-GFP+ CML cells” value (TT-CML affected mouse [2]; dasatinib 5 mg/kg/day, FIG. 4B) was “remarkably decreased” and the “percentage of T315I BCR-ABL-GFP+KLS+ cells” value [3] was “remarkably decreased”. The “colony formation of human CML-initiating cells” value [4] was “significantly inhibited colony formation”.
